From patent publication US10660856B2, “Porous silica gel as a carrier for liquid technologies” (W.R. Grace & Co.-Conn., priority 2013, dated 2020)

Legend:
Format in all cases: physicochemical
[1] = Oil or surfactant adsorption capacity on Sample S1 (ASTM D281 titration)
Experimental: Procedure: 2 to 5 g (based on bulk density) of the solid carrier material was placed in a 100 ml beaker and the oil or surfactant was added drop wise from a Burette, while mixing with spatula according to ASTM […]. The addition of oil or surfactant was continued until a thick paste-like mass formation. The addition of oil or surfactant was stopped when the mass appeared to contain excess oil. The Burette reading was recorded when the mass contained no excess oil or surfactant. The adsorption capacity was calculated using the below equation: [formula]

[2] = Specific gravity of oils and surfactants
[3] = Oil release (Tocopherol) from tablets, dissolution with HPLC; conditions: at 45 min, from tablets of Tocopherol loaded silica S2, 100 mg Tocopherol per tablet
Experimental: Oil Release (Tocopherol) from Tablets: The carrier materials used in the following trials was the material designated S2 in Example 1. Tocopherol was the liquid lipid that was loaded on to the silica. Silica S2 was loaded with liquid lipid pursuant to method of Example 8 and was used as the oil loaded carrier component in tablet. Tablets were prepared pursuant to the method in example 10. Tochopherol concentration in the tablet was 100 mg.
Tablets prepared were subjected to dissolution studies pursuant to the method described in Example 8. An aliquot of 2 mL was withdrawn at predetermined time interval and filtered through 0.22μ membrane filter. The dissolution samples were analyzed by using HPLC (Waters UPLC Wavelength: 294 nm Column: Rocket Format, 53×7 mm, 3μ) Mobile Phase: 85% ACN: 10% MeOH: 5% H2O.)

[4] = oil adsorbed on Sample S1 material

SMILES	Adsorption capacity [1, 4]	Specific gravity ([2]; oils, Table 2)	Tocopherol release [3]	Adsorption capacity ([1]; surfactant adsorbed on Sample S1 material)	Specific gravity ([2]; surfactants, Table 3)
Cc1c(C)c2c(c(C)c1O)CCC(C)(CCCC(C)CCCC(C)CCCC(C)C)O2 (racemic) [dl-α-Tocopherol]	292 g/100 g	0.950 g/mL	≈ 100%	–	–
CCOCCOCCO [Transcutol HP]	–	–	–	295 g/100 g	0.987 g/mL
CCCCCCCC/C=C\CCCCCCCC(=O)O [Oleic acid]	300 g/100 g	0.895 g/mL	–	–	–
